What all share (experiment): Bliss interaction score (quartile over a dose matrix) (fitness difference); higher = more antagonism (negative = synergy)
The test system of one test is B. subtilis 168. A digest of the protocol:
(§1)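 Growth was read as OD595 when cultures entered stationary phase, and each value was divided by the plate's robust no-drug mean and capped at 1. This normalised ratio is the fitness value, and fitness for each single drug came from the combination data. The Bliss score subtracts the expected fitness, taken as the product, from the observed fitness and is given as quartiles across technical, biological and donor/recipient replicates.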

The next test concerns S. aureus Newman. A digest of the protocol:
as §1

The test system of the next test is S. pneumoniae D39V. In outline:
as §1

A further test has as its system S. aureus DSM 20231. In outline:
as §1
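Also: first quartile when negative (synergy) and third quartile when positive (antagonism).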

On to `CN(C)[C@@H]1C(O)=C(C(N)=O)C(=O)[C@@]2(O)C(O)=C3C(=O)c4c(O)ccc(Cl)c4[C@@](C)(O)[C@H]3C[C@@H]12` [Clortetracycline] + COc1ccc(C[C@H](N)C(=O)N[C@H]2[C@@H](O)[C@H](n3cnc4c(N(C)C)ncnc43)O[C@@H]2CO)cc1 [Puromycin], for which the Bliss interaction score in the test with B. subtilis 168 is -0.0605; in the test on S. aureus Newman, -0.0798; with S. pneumoniae D39V, -0.0852; in the test with S. aureus DSM 20231 it was -0.0681.

`N#CC(C#N)=NNc1cccc(Cl)c1` [CCCP] + Cc1ncc([N+](=O)[O-])n1CCO [Metronidazole]: the Bliss interaction score with B. subtilis 168 is 0.0615; with S. aureus Newman it was -0.0331; in the test on S. pneumoniae D39V, 0.12; in the test on S. aureus DSM 20231, 0.0642.

For the compound `N#CC(C#N)=NNc1cccc(Cl)c1` [CCCP] + CC[C@H]1OC(=O)[C@H](C)[C@@H](O[C@H]2C[C@@](C)(OC)[C@@H](O)[C@H](C)O2)[C@H](C)[C@@H](O[C@@H]2O[C@H](C)C[C@H](N(C)C)[C@H]2O)[C@](C)(OC)C[C@@H](C)C(=O)[C@H](C)[C@@H](O)[C@]1(C)O [Clarithromycin], the Bliss interaction score in the test on B. subtilis 168 is 0.0363; in the test with S. aureus Newman, 0.0706; with S. pneumoniae D39V, -0.0531; in the test on S. aureus DSM 20231, -0.0461.

On to `CO/N=C(\C(=O)N[C@@H]1C(=O)N2C(C(=O)O)=C(COC(C)=O)CS[C@H]12)c1csc(N)n1` [Cefotaxime] + Oc1cc(Cl)ccc1Oc1ccc(Cl)cc1Cl [Triclosan], for which the Bliss interaction score in the test with B. subtilis 168 was 0.0558; in the test with S. aureus Newman, 0.033; in the test with S. pneumoniae D39V, -0.0421; in the test with S. aureus DSM 20231, 0.0696.

In the case of `O=C(O)c1cn(C2CC2)c2cc(N3CCNCC3)c(F)cc2c1=O` [Ciprofloxacin] + CC[C@H]1OC(=O)[C@H](C)[C@@H](O[C@H]2C[C@@](C)(OC)[C@@H](O)[C@H](C)O2)[C@H](C)[C@@H](O[C@@H]2O[C@H](C)C[C@H](N(C)C)[C@H]2O)[C@](C)(O)C[C@@H](C)C(=O)[C@H](C)[C@@H](O)[C@]1(C)O [Erythromycin], the Bliss interaction score came out at 0.211 in the test with B. subtilis 168, 0.0474 in the test with S. aureus Newman, 0.065 in the test with S. pneumoniae D39V and 0.0597 in the test on S. aureus DSM 20231.

As for `CN(C)[C@@H]1C(O)=C(C(N)=O)C(=O)[C@@]2(O)C(O)=C3C(=O)c4c(O)ccc(Cl)c4[C@@](C)(O)[C@H]3C[C@@H]12` [Clortetracycline] + CC[C@H]1OC(=O)[C@H](C)C(=O)[C@H](C)[C@@H](O[C@@H]2O[C@H](C)C[C@H](N(C)C)[C@H]2O)[C@](C)(OC)C[C@@H](C)C(=O)[C@H](C)[C@H]2N(CCCCn3cnc(-c4cccnc4)c3)C(=O)O[C@]12C [Telithromycin], the Bliss interaction score in the test with B. subtilis 168 is -0.372; in the test on S. aureus Newman, -0.101; with S. pneumoniae D39V, -0.0824; with S. aureus DSM 20231 it was -0.0731.

For the compound `CO/N=C(\C(=O)N[C@@H]1C(=O)N2C(C(=O)O)=C(COC(N)=O)CS[C@H]12)c1ccco1` [Cefuroxime] + C/C(=C\C(=O)OCCCCCCCCC(=O)O)C[C@@H]1OC[C@H](C[C@@H]2O[C@H]2[C@@H](C)[C@H](C)O)[C@@H](O)[C@H]1O [Pseudomonic acid], the Bliss interaction score came to 0.074 in the test on B. subtilis 168 and 0.0629 in the test with S. pneumoniae D39V.

With `CC(=O)Oc1ccccc1C(=O)O` [Acetylsalicylicacid] + CCC[C@@H]1C[C@@H](C(=O)N[C@@H]([C@H]2O[C@H](SC)[C@H](O)[C@@H](O)[C@H]2O)[C@@H](C)O)N(C)C1 [Lincomycin], the Bliss interaction score was -0.0832 in the test with B. subtilis 168, 0.0556 in the test with S. aureus Newman, 0.0801 in the test with S. pneumoniae D39V and 0.199 in the test on S. aureus DSM 20231.

For `N#CC(C#N)=NNc1cccc(Cl)c1` [CCCP] + C[n+]1ccc(-c2cc[n+](C)cc2)cc1 [Paraquat], the Bliss interaction score in the test on B. subtilis 168 was 0.0508; with S. aureus Newman, -0.0253; in the test with S. pneumoniae D39V, 0.0866; with S. aureus DSM 20231, -0.0508.

Consider `CO/N=C(\C(=O)N[C@@H]1C(=O)N2C(C(=O)O)=C(COC(N)=O)CS[C@H]12)c1ccco1` [Cefuroxime] + Oc1cc(Cl)ccc1Oc1ccc(Cl)cc1Cl [Triclosan], for which the Bliss interaction score was 0.0538 in the test on B. subtilis 168, -0.0309 in the test on S. aureus Newman, 0.0619 with S. pneumoniae D39V and 0.0932 in the test on S. aureus DSM 20231.

`N#CC(C#N)=NNc1cccc(Cl)c1` [CCCP] + C/C(=C\C(=O)OCCCCCCCCC(=O)O)C[C@@H]1OC[C@H](C[C@@H]2O[C@H]2[C@@H](C)[C@H](C)O)[C@@H](O)[C@H]1O [Pseudomonic acid]: the Bliss interaction score in the test with B. subtilis 168 is -0.137; in the test on S. aureus Newman it was -0.0111; in the test with S. pneumoniae D39V, 0.0939; in the test on S. aureus DSM 20231, 0.0141.

For the compound `N#CC(C#N)=NNc1cccc(Cl)c1` [CCCP] + CC(C1CCC(C(O1)OC2C(CC(C(C2O)OC3C(C(C(CO3)(C)O)NC)O)N)N)N)NC [Gentamicin], the Bliss interaction score with B. subtilis 168 (main component drawn) turned out to be 0.259; in the test with S. aureus Newman (main component drawn) it was 0.116; with S. pneumoniae D39V (main component drawn), 0.0882; with S. aureus DSM 20231 (main component drawn), 0.0926.

`CC(=O)Oc1ccccc1C(=O)O` [Acetylsalicylicacid] + CO[C@@H]1[C@@H](OC(N)=O)[C@@H](O)[C@H](Oc2ccc3c(O)c(NC(=O)c4ccc(O)c(CC=C(C)C)c4)c(=O)oc3c2C)OC1(C)C [Novobiocin]: the Bliss interaction score in the test with B. subtilis 168 is -0.146; in the test on S. aureus Newman, -0.0718; with S. pneumoniae D39V, 0.123; with S. aureus DSM 20231 it was -0.068.

For the compound `C[C@H]1c2cccc(O)c2C(=O)C2=C(O)[C@]3(O)C(=O)C(C(N)=O)=C(O)[C@@H](N(C)C)[C@@H]3[C@@H](O)[C@@H]21` [Doxycycline] + CN[C@H](CC(C)C)C(=O)N[C@H]1C(=O)N[C@@H](CC(N)=O)C(=O)N[C@H]2C(=O)N[C@H]3C(=O)N[C@H](C(=O)N[C@H](C(=O)O)c4cc(O)cc(O)c4-c4cc3ccc4O)[C@H](O[C@H]3C[C@](C)(N)[C@@H](O)[C@H](C)O3)c3ccc(c(Cl)c3)Oc3cc2cc(c3O[C@@H]2O[C@H](CO)[C@@H](O)[C@H](O)[C@H]2O[C@H]2C[C@](C)(NCc3ccc(-c4ccc(Cl)cc4)cc3)[C@@H](O)[C@H](C)O2)Oc2ccc(cc2Cl)[C@H]1O [Oritavancin], the Bliss interaction score is 0.0303 in the test on B. subtilis 168, 0.0145 with S. aureus Newman, 0.0456 in the test with S. pneumoniae D39V and -0.0271 in the test with S. aureus DSM 20231.

Turning to `Cc1ncc([N+](=O)[O-])n1CCO` [Metronidazole] + Oc1cc(Cl)ccc1Oc1ccc(Cl)cc1Cl [Triclosan], the Bliss interaction score with B. subtilis 168 stood at 0.0396; with S. aureus Newman, 0.0457; with S. pneumoniae D39V, 0.0696; in the test with S. aureus DSM 20231, 0.0778.

`N#CC(C#N)=NNc1cccc(Cl)c1` [CCCP] + CO[C@@H]1[C@@H](OC(N)=O)[C@@H](O)[C@H](Oc2ccc3c(O)c(NC(=O)c4ccc(O)c(CC=C(C)C)c4)c(=O)oc3c2C)OC1(C)C [Novobiocin]: the Bliss interaction score in the test with B. subtilis 168 is -0.144; with S. aureus Newman it was 0.0377; in the test with S. pneumoniae D39V, 0.164; in the test on S. aureus DSM 20231, 0.0738.

(Values after the supplement of paper PMC10627819.)
